According to patent publication US20190010182A1, “SALT OF (SS)-ADENOSYL METHIONINE WITH INOSITOL HEXAPHOSPHATE, AND PROCESS FOR THE PREPARATION THEREOF” (GNOSIS S.p.A., priority 2017, published 2019):

Key:
[1] = stability test, storage at +25° C. in a thermostatic stove up to 6 months; assay type: physicochemical; conditions: FIG. 4
Procedure: FIG. 3 depicts SAMe ion content analysis in a product stability test, storing samples at 25° C. in a thermostatic stove up to 6 months. The test measured the SAMe ion content (as percent loss of SAMe ion) in the (SS)SAMe inositol hexaphosphate salt (samples AT1003 and AT1005), the commercial SAMe 1,4-butanedisulphonate salt (sample SD4Test1), the commercial SAMe Pates salt (S1S1057B) and the SAMe-metal-phytate complex obtained according to EP1896489 (sample 04B17DS).
FIG. 4 further depicts SAMe ion content analysis in a product stability test for diastereomeric purity, storing samples at 25° C. in a thermostatic stove up to 6 months. The test measured the (SS)SAMe diastereoisomer ion content (as percent loss of (SS)SAMe diastereomer) in the (SS)SAMe inositol hexaphosphate salt (samples AT1003 and AT1005), and also in the commercial SAMe 1,4-butanedisulphonate salt (sample SD4Test1), the commercial SAMe Pates salt (S1S1057B) and the SAMe-metal-phytate complex obtained according to EP1896489 (sample 04B17DS).
Some samples of the products obtained as described in the previous examples are subjected to stability tests, storing them at +25° C., in a thermostatic stove. […]

[2] = accelerated stability test, thermostatic stove at +55° C., 5 days; assay type: physicochemical
Procedure: The product obtained as described in Example 6 (comprising SAMe and phytic acid) and a sample of SAMe inositol hexaphosphate obtained as described in Example 5 are subjected to an accelerated stability test, incubated in a thermostatic stove at +55° C., and the analyses are repeated after 5 days.
The samples are analysed for the following values:
SAMe ion content (total of all enantiomers) determined by HPLC and expressed as % by weight enantiomeric purity, determined by HPLC and expressed as % of (SS) isomer active ingredient content, calculated by multiplying the previous two values and expressed as % by weight of (SS)SAMe overall purity, determined by HPLC as SAMe area/total area of chromatogram, expressed as area %. The figure comprises the values of all known degradation impurities.

[3] = Pharmacokinetic profile in the rat (SAMe blood levels, AUC); assay type: in vivo, Sprague Dawley rats; conditions: by cannula in water, 134 mg/kg and 95 mg/kg, compared with SAMe Pates at equal SAMe ion dose
Procedure: 70 Sprague Dawley rats (35 male and 35 female), aged 7-9 weeks and weighing 176-200 g, were acclimatized in a cage for two weeks before the start of the treatment, maintained at +22° C. and 55% relative humidity. The rats were fed on 4RF 21 (Mucedola) feed, and weighed before the beginning and at the end of the test. At the time of treatment, 32 animals per group (16 males and 16 females) were selected from those with the most similar weights, and assigned to the two treatments.
The product was administered by cannula, dissolved in water, at two dose levels, namely 134 mg/kg and 95 mg/kg. The rats were fasted overnight before administration and for a further two hours after administration. The two equimolar doses guaranteed an equal intake of SAMe ion.
The blood levels of SAMe were assayed by taking a sample from the tail vein at fixed intervals, at times 0 (pre-administration), 0.5, 1, 1.5, 2, 4, 8 and 24 hours after administration. The blood samples were centrifuged after addition of EDTA to separate the plasma from the cell fraction. The plasma was then analysed by HPLC according to the method reported in Wise, Fullerton J. Liq. Chromatogr. […]
The SAMe plasma concentration values are also used to determine, according to the Area Under Curve (AUC) calculation, the total quantity of active ingredient absorbed, obtaining the values set out in FIG. 2.

Structure (SMILES): C[S@@+](CC[C@H](N)C(=O)[O-])C[C@H]1O[C@@H](n2cnc3c(N)ncnc32)[C@H](O)[C@@H]1O.O=P(O)(O)O[C@H]1[C@H](OP(=O)(O)O)[C@@H](OP(=O)(O)O)[C@H](OP(=O)(O)O)[C@@H](OP(=O)(O)O)[C@H]1OP(=O)(O)O [AT1003, (SS)-adenosyl methionine with myo-inositol 1,2,3,4,5,6 hexakisphosphate]
- (SS)SAMe isomer content stability (percent loss of (SS)SAMe diastereomer) [1]: stable for longer
- content of the active ingredient (SS)SAMe after the stress test ([2]; 5 days at +55° C., compared with 04B17DS): maintains a higher content
- degradation by isomerization after the stress test ([2]; 5 days at +55° C., comparison of AT1003 and 04B17DS): surprisingly lower
- (SS) enantiomer (enantiomeric purity, HPLC), final value ([2]; after 5 days at +55° C.): 69.56%
- SAMe content (SAMe ion, total of all enantiomers, HPLC), final value ([2]; after 5 days at +55° C.): 30.6% w/w
- Purity (% area), final value ([2]; after 5 days at +55° C., HPLC SAMe area/total area): 90.0% area
- (SS)SAMe content (active ingredient content), final value ([2]; after 5 days at +55° C., SAMe content x enantiomeric purity, % by weight): 21.28%
- (SS) enantiomer (enantiomeric purity, HPLC), starting value ([2]; before incubation at +55° C.): 77.2%
- SAMe content (SAMe ion, total of all enantiomers, HPLC), starting value ([2]; before incubation at +55° C.): 34.45% w/w
- Purity (% area), starting value ([2]; before incubation at +55° C., HPLC SAMe area/total area): 95.98% area
- (SS)SAMe content (active ingredient content), starting value ([2]; before incubation at +55° C., SAMe content x enantiomeric purity, % by weight): 26.59%
- plasma concentration of active ingredient (SAMe) ([3]; FIG. 1): higher plasma concentration
- absorption (AUC 8 hours of SAMe plasma concentration) ([3]; FIG. 2): better absorption
